Source: patent publication US8440710B2, “HSL inhibitors useful in the treatment of diabetes” (Hoffmann-La Roche Inc., priority 2009, dated 2013)
pIC50: −log10 of the molar value.

Target: T1, human HSL (Homo sapiens, UniProt Q05469)
T1 construct: generate a full length human HSL ORF with a 3′-His6 tag; made in house; host or cells: High 5 insect cells (baculovirus, pFast-BAC)
T1 sequence (Q05469 1-1076): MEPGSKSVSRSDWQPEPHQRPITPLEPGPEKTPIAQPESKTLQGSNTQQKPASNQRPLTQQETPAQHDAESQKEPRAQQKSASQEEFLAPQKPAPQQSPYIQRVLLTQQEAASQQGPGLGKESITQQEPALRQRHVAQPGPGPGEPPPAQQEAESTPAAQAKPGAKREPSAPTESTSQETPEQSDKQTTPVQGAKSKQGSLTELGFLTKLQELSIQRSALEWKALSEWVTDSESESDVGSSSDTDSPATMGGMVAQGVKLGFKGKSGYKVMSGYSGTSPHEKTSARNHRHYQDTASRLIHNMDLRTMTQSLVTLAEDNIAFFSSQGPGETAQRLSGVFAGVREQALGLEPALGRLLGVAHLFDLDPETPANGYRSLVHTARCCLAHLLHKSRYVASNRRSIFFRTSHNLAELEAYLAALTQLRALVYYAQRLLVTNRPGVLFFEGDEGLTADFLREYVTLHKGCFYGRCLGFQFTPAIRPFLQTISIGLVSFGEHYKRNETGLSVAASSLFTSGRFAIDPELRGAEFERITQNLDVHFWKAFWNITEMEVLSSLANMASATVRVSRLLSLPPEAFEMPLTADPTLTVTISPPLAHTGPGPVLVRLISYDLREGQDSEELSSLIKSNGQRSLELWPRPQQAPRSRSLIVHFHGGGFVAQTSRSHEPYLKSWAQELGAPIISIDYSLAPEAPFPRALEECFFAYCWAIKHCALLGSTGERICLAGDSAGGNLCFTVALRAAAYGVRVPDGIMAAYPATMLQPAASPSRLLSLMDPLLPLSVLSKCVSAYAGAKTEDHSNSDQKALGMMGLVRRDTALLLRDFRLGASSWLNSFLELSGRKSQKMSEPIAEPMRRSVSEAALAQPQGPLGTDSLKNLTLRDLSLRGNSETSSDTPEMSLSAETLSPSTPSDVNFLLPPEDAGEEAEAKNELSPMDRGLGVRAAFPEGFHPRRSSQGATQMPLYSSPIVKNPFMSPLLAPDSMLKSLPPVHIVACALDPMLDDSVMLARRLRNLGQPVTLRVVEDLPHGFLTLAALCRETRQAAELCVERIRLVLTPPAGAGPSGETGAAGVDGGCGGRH
Assay: Human Hormone-Sensitive Lipase (HSL) enzyme inhibition assay (colorimetric, DMPT substrate)
Format: biochemical
Conditions: human full length HSL-His6, 2,3-dimercapto-1-propanol tributyrate substrate, 37° C. 20 minutes, absorbance at 405 nm; read-out: HSL hum IC50
Procedure, shortened: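 Full-length human HSL with C-terminal His6, expressed in baculovirus-infected High 5 cells and Ni-NTA purified, was added (15 ug/ml stock) to 1.5 mM DMPT in 100 mM MOPS pH 7.2, 0.2 mg/ml fatty acid-free BSA containing compound. After 20 min at 37 °C, DTNB with SDS/Triton X-100 was added; A405 read after 15 min at RT.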

pIC50 | SMILES
7.30 | Cn1nnc(Br)c1[C@]1(O)CC[C@]2(CCN(c3ccc(C(F)(F)F)cc3)C2=O)CC1 [Example 214, (5α,8α)-8-(5-Bromo-3-methyl-3H-[1,2,3]triazol-4-yl)-8-hydroxy-2-(4-trifluoromethyl-phenyl)-2-aza-spiro[4.5]decan-1-one]
6.23 | Cn1nncc1[C@]1(O)CC[C@]2(CCN(c3ccc(C(F)(F)F)cc3)C2=O)CC1 [Example 215, (5α,8α)-8-Hydroxy-8-(3-methyl-3H-[1,2,3]triazol-4-yl)-2-(4-trifluoromethyl-phenyl)-2-aza-spiro[4.5]decan-1-one]
8.00 | CC(C)c1ccc(N2CC[C@]3(CC[C@@](O)(COCC(F)(F)F)CC3)C2=O)cc1 [Example 216, (5α,8α)-8-hydroxy-2-(4-isopropylphenyl)-8-((2,2,2-trifluoroethoxy)methyl)-2-aza-spiro[4.5]decan-1-one]
7.30 | CC(C)Oc1ccc(N2CC[C@]3(CC[C@@](O)(c4ccn(C)n4)CC3)C2=O)cc1 [Example 217, (5α,8α)-8-hydroxy-2-(4-isopropoxyphenyl)-8-(1-methyl-1H-pyrazol-3-yl)-2-aza-spiro[4.5]decan-1-one]
7.40 | COC[C@]1(O)CC[C@]2(CCN(c3ccc(C(C)C)cc3)C2=O)CC1 [Example 218, (5α,8α)-8-hydroxy-2-(4-isopropylphenyl)-8-(methoxymethyl)-2-aza-spiro[4.5]decan-1-one]
7.96 | O=C1N(c2ccc(C(F)(F)F)cc2)CC[C@]12CC[C@@](O)(COCC(F)(F)F)CC2 [Example 219, (5α,8α)-8-hydroxy-8-((2,2,2-trifluoroethoxy)methyl)-2-(4-(trifluoromethyl)phenyl)-2-aza-spiro[4.5]decan-1-one]
7.70 | Cc1cc(C[C@]2(O)CC[C@]3(CCN(c4ccc(OC(C)C)cc4)C3=O)CC2)no1 [Example 220]
5.94 | Cc1cc(C[C@]2(O)CC[C@@]3(CCN(c4ccc(OC(C)C)cc4)C3=O)CC2)no1 [Example 221, (5α,8β)-8-hydroxy-2-(4-isopropoxyphenyl)-8-((5-methylisoxazol-3-yl)methyl)-2-aza-spiro[4.5]decan-1-one]
6.99 | C=Cc1nnn(C)c1[C@]1(O)CC[C@]2(CCN(c3ccc(OC(C)C)cc3)C2=O)CC1 [Example 222, (5α,8α)-8-hydroxy-2-(4-isopropoxyphenyl)-8-(1-methyl-4-vinyl-1H-1,2,3-triazol-5-yl)-2-aza-spiro[4.5]decan-1-one]
7.30 | COC[C@]1(O)CC[C@]2(CCN(c3ccc(C4CC4)cc3)C2=O)CC1 [Example 223, (5α,8α)-2-(4-Cyclopropyl-phenyl)-8-hydroxy-8-methoxymethyl-2-aza-spiro[4.5]decan-1-one]
6.82 | CCc1ccc(N2CC[C@]3(CC[C@@](O)(COC)CC3)C2=O)cc1 [Example 224, (5α,8α)-2-(4-Ethyl-phenyl)-8-hydroxy-8-methoxymethyl-2-aza-spiro[4.5]decan-1-one]
7.22 | CCOC[C@]1(O)CC[C@]2(CCN(c3ccc(CC)cc3)C2=O)CC1 [Example 225, (5α,8α)-8-Ethoxymethyl-2-(4-ethyl-phenyl)-8-hydroxy-2-aza-spiro[4.5]decan-1-one]
7.70 | CCCOC[C@]1(O)CC[C@]2(CCN(c3ccc(CC)cc3)C2=O)CC1 [Example 226, (5α,8α)-2-(4-Ethyl-phenyl)-8-hydroxy-8-propoxymethyl-2-aza-spiro[4.5]decan-1-one]
6.15 | CCc1ccc(N2CC[C@]3(CC[C@](O)(COc4ccccc4)CC3)C2=O)cc1 [Example 227, (5α,8β)-2-(4-Ethyl-phenyl)-8-hydroxy-8-phenoxymethyl-2-aza-spiro[4.5]decan-1-one]
7.70 | CCc1ccc(N2CC[C@]3(CC[C@@](O)(COc4ccccc4)CC3)C2=O)cc1 [Example 228, (5α,8α)-2-(4-Ethyl-phenyl)-8-hydroxy-8-phenoxymethyl-2-aza-spiro[4.5]decan-1-one]

Second part, the compound before the results:

SMILES | pIC50
CC(C)Oc1ccc(N2CC[C@]3(CC[C@@](O)(C4CCCC4)CC3)C2=O)cc1 [Example 198, (5α,8α)-8-cyclopentyl-8-hydroxy-2-(4-isopropoxyphenyl)-2-aza-spiro[4.5]decan-1-one] | 8.00
CC(C)C[C@]1(O)CC[C@]2(CCN(c3ccc(OC(C)C)cc3)C2=O)CC1 [Example 199, (5α,8α)-8-hydroxy-8-isobutyl-2-(4-isopropoxyphenyl)-2-aza-spiro[4.5]decan-1-one] | 8.00
O=C1N(c2ccc([C@@H](O)C(F)(F)F)cc2)CC[C@]12CC[C@@](O)(C1CCC1)CC2 [Example 200, (5α,8α)-8-cyclobutyl-8-hydroxy-2-(4-((R)-2,2,2-trifluoro-1-hydroxyethyl)phenyl)-2-aza-spiro[4.5]decan-1-one] | 7.70
O=C1N(c2ccc([C@@H](O)C(F)(F)F)cc2)CC[C@]12CC[C@@](O)(C1CC1)CC2 [Example 201, (5α,8α)-8-cyclopropyl-8-hydroxy-2-(4-((R)-2,2,2-trifluoro-1-hydroxyethyl)phenyl)-2-aza-spiro[4.5]decan-1-one] | 7.30
O=C1N(c2ccc([C@@H](O)C(F)(F)F)cc2)CC[C@]12CC[C@@](O)(C1CCCC1)CC2 [Example 202, (5α,8α)-8-cyclopentyl-8-hydroxy-2-(4-((R)-2,2,2-trifluoro-1-hydroxyethyl)phenyl)-2-aza-spiro[4.5]decan-1-one] | 8.00
CC(C)c1ccc(N2CC[C@]3(CC[C@@](O)(C(C)C)CC3)C2=O)cc1 [Example 203, (5α,8α)-8-hydroxy-8-isopropyl-2-(4-isopropylphenyl)-2-aza-spiro[4.5]decan-1-one] | 8.00
CCC[C@]1(O)CC[C@]2(CCN(c3ccc(C(C)C)cc3)C2=O)CC1 [Example 204, (5α,8α)-8-hydroxy-2-(4-isopropylphenyl)-8-propyl-2-aza-spiro[4.5]decan-1-one] | 7.70
CC(C)c1ccc(N2CC[C@]3(CC[C@@](O)(c4ccccc4)CC3)C2=O)cc1 [Example 205, (5α,8α)-8-hydroxy-2-(4-isopropylphenyl)-8-phenyl-2-aza-spiro[4.5]decan-1-one] | 8.00
CC(C)Oc1ccc(N2CC[C@]3(CC[C@@](O)(c4ccccc4)CC3)C2=O)cc1 [Example 206, (5α,8α)-8-hydroxy-2-(4-isopropoxyphenyl)-8-phenyl-2-aza-spiro[4.5]decan-1-one] | 8.00
CC(C)[C@]1(O)CC[C@]2(CCN(c3ccc(C(O)C(F)F)cc3)C2=O)CC1 (stereo partly drawn) [Example 207, (5α,8α)-2-(4-(2,2-difluoro-1-hydroxyethyl)phenyl)-8-hydroxy-8-isopropyl-2-aza-spiro[4.5]decan-1-one] | 7.05
CCC[C@]1(O)CC[C@]2(CCN(c3ccc(C(F)(F)F)cc3)C2=O)CC1 [Example 208, (5α,8α)-8-hydroxy-8-propyl-2-(4-(trifluoromethyl)phenyl)-2-aza-spiro[4.5]decan-1-one] | 7.52
CC(C)[C@]1(O)CC[C@]2(CCN(c3ccc(C(F)(F)F)cc3)C2=O)CC1 [Example 209, (5α,8α)-8-hydroxy-8-isopropyl-2-(4-(trifluoromethyl)phenyl)-2-aza-spiro[4.5]decan-1-one] | 7.52
COC[C@]1(O)CC[C@]2(CCN(c3ccc(OC(C)C)cc3)C2=O)CC1 [Example 210, (5α,8α)-8-hydroxy-2-(4-isopropoxyphenyl)-8-(methoxymethyl)-2-aza-spiro[4.5]decan-1-one] | 7.30
CC(C)Oc1ccc(N2CC[C@]3(CC[C@@](O)(c4ccsc4)CC3)C2=O)cc1 [Example 211, (5α,8α)-8-hydroxy-2-(4-isopropoxyphenyl)-8-(thiophen-3-yl)-2-aza-spiro[4.5]decan-1-one] | 8.00
CC(C)Oc1ccc(N2CC[C@]3(CC[C@@](O)(c4c(Br)nnn4C)CC3)C2=O)cc1 [Example 212, (5α,8α)-8-(5-Bromo-3-methyl-3H-[1,2,3]triazol-4-yl)-8-hydroxy-2-(4-isopropoxy-phenyl)-2-aza-spiro[4.5]decan-1-one] | 8.00
CC(C)Oc1ccc(N2CC[C@]3(CC[C@@](O)(c4cnnn4C)CC3)C2=O)cc1 [Example 213] | 6.41
